Results on 3 molecules are retold here after patent US8633199B2, “Medicine consisting of concomitant use or combination of DPP-IV inhibitor and other diabetic medicine” (Sanwa Kagaku Kenkyusho Co., Ltd., priority 2008, dated 2014).

Common to all, as to type: in vivo, rat
The test system of assay [1] is ZDF rats. Kind of assay: Oral corn starch loading test, plasma active GLP-1, glucose and insulin. The settings on record: oral compound (I) 3 mg/kg, Metformin 300 mg/kg, 15 min before corn starch loading, AUC 0-180 min; for increase of the concentration of the active GLP-1 in the plasma (AUC of change): FIG. 5; for plasma glucose elevation (AUC): FIG. 6. The method, then: An operation to insert a polyurethane catheter was performed on the right jugular vein of a ZDF rat (13 weeks old, male, Charles River Laboratories Japan, Inc.), and experiments were performed in the following four groups. (1) Control group: purified water was administered at a ratio of 5 ml/kg (2) Compound (I) group: the compound (I) dissolved in purified water was administered at a dose of 3 mg/kg (5 ml/kg) […] Metformin dissolved in purified water was administered at a dose of 300 mg/kg (5 ml/kg) (4) Concomitant use group: the compound (I) and Metformin dissolved in purified water were administered at respective doses of 3 mg/kg (5 ml/kg) and 300 mg/kg (5 ml/kg) […] Blood was collected from the catheter immediately before administration and after administration of corn starch, and centrifuged at 4° C., 3000 rpm for 10 minutes to obtain plasma. The concentration of the active GLP-1 in the obtained blood plasma was measured by ELISA (GLUCAGON-LIKE PEPTIDE-1 (ACTIVE) ELISA KIT, LINCO Research, Inc., US), the plasma glucose and insulin concentrations of the obtained plasma was measured by Glucose C2 (Wako Pure Chemical Industries, Ltd., Japan) and ELISA (Rat Insulin ELISA Kit, Shibayagi, Co., Ltd., Japan), respectively. Based on the measured concentration of the active GLP-1 in the plasma, the amount of change relative to the concentration immediately before starch administration was obtained. Based on the amount of change relative to the plasma active GLP-1, glucose and insulin concentrations, AUC from immediately before the administration of starch to 180 minutes after the administration was calculated. The result of the plasma active GLP-1 concentration is shown in FIG. 5, the result of the plasma glucose concentration is shown in FIG. 6 and the result of the plasma insulin concentration is shown in FIG. 7.

In assay [2] the test system is Wistar rats. Put plainly: Oral corn starch loading test, plasma GIP (ELISA). The settings on record: oral compound (I) 3 mg/kg, Metformin 300 mg/kg, 30 min before corn starch loading, AUC 0-180 min, FIG. 8. The method, then:
Effects of compound (I) alone, Metformin alone and concomitant use of compound (I) and Metformin on concentration of GIP in plasma during oral corn starch loading test in Slc: Wistar/ST rats (hereinafter abbreviated as Wistar rats) An operation to insert a polyurethane catheter was performed on the right jugular vein of a Wistar rat (9 weeks old, male, Japan SLC, Inc.), and experiments were performed in the following four groups. (1) Control group: purified water was administered at a ratio of 5 ml/kg (2) Compound (I) group: the compound (I) dissolved in purified water was administered at a dose of 3 mg/kg (5 ml/kg) […] Metformin dissolved in purified water was administered at a dose of 300 mg/kg (5 ml/kg) (4) Concomitant use group: the compound (I) and Metformin dissolved in purified water were administered at respective doses of 3 mg/kg (5 ml/kg) and 300 mg/kg (5 ml/kg) […] Blood was collected from the catheter immediately before administration and after administration of corn starch, and centrifuged at 4° C., 3000 rpm for 10 minutes to obtain plasma. The concentration of the GIP in the obtained plasma was measured by ELISA (RAT/MOUSE GIP (TOTAL) ELISA KIT, LINCO Research, Inc., US). Based on the measured GIP concentration, AUC from immediately before the administration of starch to 180 minutes after the administration was calculated.

For assay [3], the system named is Zucker fatty rats. Put plainly: Liquid diet loading test, plasma GIP, glucose and insulin. To be noted: oral 3 mg/kg each drug 15 min before liquid diet loading; for increase in the plasma glucose concentration (AUC): AUC 0-60 min, FIG. 3; for increase in the GIP concentration in plasma (AUC, total GIP): AUC 0-120 min, FIG. 2. The method, then: Effects of compound (I) alone, Miglitol alone and concomitant use of compound (I) and Miglitol on GIP, glucose and insulin concentrations in plasma during liquid diet loading test in Crlj: ZUC-Lepr^fa Genotype: fa/fa rats (hereinafter abbreviated as Zucker fatty rats)
An operation to insert a polyurethane catheter was performed on the right jugular vein of a Zucker fatty rat (8 weeks old, male, Charles River Laboratories Japan, Inc.), which is an obesity and insulin-resistant model, and experiments were performed in the following four groups.
(§1) (1) Control group: purified water was administered at a ratio of 5 ml/kg
(§2) (2) Compound (I) group: the compound (I) dissolved in purified water was administered at a dose of 3 mg/kg (5 ml/kg)
(§3) (3) Miglitol group: Miglitol dissolved in purified water was administered at a dose of 3 mg/kg (5 ml/kg)
(§4) (4) Concomitant use group: the compound (I) and Miglitol dissolved in purified water were administered at respective dose of 3 mg/kg (5 ml/kg)
Purified water, the compound (I) and Miglitol were orally administered respectively to the Zucker fatty rats fasted overnight in each group as described in (1) to (4), and after 15 minutes, a liquid diet (trade mark: ENSURE H, Meiji Dairies Corporation, Japan) was administered at a ratio of 10 ml/kg to carry out a diet loading test. Blood was collected from the catheter immediately before loading and after loading of the liquid diet, and centrifuged at 4° C., 3000 rpm for 10 minutes to obtain plasma. The GIP concentration in the obtained plasma was measured by an ELISA (RAT/MOUSE GIP (TOTAL) ELISA KIT, LINCO Research, Inc., US), and the plamsa glucose and insulin concentrations was measured by Glucose C2 (Wako Pure Chemical Industries, Ltd., Japan) and ELISA (Rat Insulin ELISA Kit, Shibayagi, Co., Ltd., Japan), respectively. Based on the measured GIP concentration in plasma, AUC from immediately before the loading of the liquid diet to 120 minutes after the loading was calculated. Based on the measured plasma glucose and insulin concentrations, AUC from immediately before the loading of the liquid diet to 60 minutes after the loading was calculated. […] The result of the GIP concentration in plasma is shown in FIG. 2, the result of the plasma glucose level is shown in FIG. 3 and the result of the plasma insulin concentration is shown in FIG. 4.

The subject of assay [4] is Zucker fatty rats. Kind of assay: Oral sucrose loading test, plasma active GLP-1 (ELISA). To be noted: oral 3 mg/kg each drug 15 min before sucrose loading, AUC 0-120 min, FIG. 1. The method, then:
Effects of compound (I) alone, Miglitol alone and concomitant use of compound (I) and Miglitol on plasma concentration of active GLP-1 during oral sucrose loading test in Slc: Zucker-fa/fa rats (hereinafter abbreviated as Zucker fatty rats)
An operation to insert a polyurethane catheter was performed on the right jugular vein of a Zucker fatty rat (9 weeks old, male, Japan SLC, Inc.) which is an obesity-insulin resistant model, and experiments were performed in the following four groups.
as §1, §2, §3, §4
Purified water, the compound (I) and Miglitol were orally administered respectively to the Zucker fatty rats fasted overnight in each group as described in (1) to (4), and after 15 minutes, a 30% aqueous sucrose solution was administered at a ratio of 10 ml/kg. […] The concentration of an active GLP-1 in the obtained plasma was measured by an enzyme immunoassay (hereinafter abbreviated as ELISA) (GLUCAGON-LIKE PEPTIDE-1 (ACTIVE) ELISA KIT, LINCO Research, Inc., US). […]
On the technique in general: An ELISA detects its analyte on a solid surface through an enzyme-linked reagent.

Regarding `CN(C)C(=N)N=C(N)N` [Metformin], in assay [1], the “increase of the concentration of the active GLP-1 in the plasma (AUC of change)” value (from here on “increase of the concentration … (AUC of change)”) was “no significant difference” and the “plasma glucose elevation (AUC)” value is “significantly suppressed”. Moreover, in assay [2], the “increase in the concentration of GIP in plasma (AUC, total GIP)” value is “significantly suppressed”.
For `OCCN1C[C@H](O)[C@@H](O)[C@H](O)[C@H]1CO` [Miglitol], in assay [3], the “increase in the plasma glucose concentration (AUC)” value is recorded as “no significant difference” and the “increase in the GIP concentration in plasma (AUC, total GIP)” value is reported as “showed a tendency of suppressing”. The “increase of the concentration … (AUC of change)” value in assay [4] is given as “no significant difference”.
`Cc1cc2ncc(C(=O)NCC(C)(C)NCC(=O)N3CCC[C@H]3C#N)cn2n1` [compound (I), (S)—N-(2-(2-(2-cyanopyrrolidin-1-yl)-2-oxoethylamino)-2-methylpropyl)-2-methylpyrazolo[1,5-a]pyrimidine-6-carboxamide]: in assay [3], the “increase in the plasma glucose concentration (AUC)” value is “no significant difference” and the “increase in the GIP concentration in plasma (AUC, total GIP)” value is listed as “no change”. In addition, the “increase of the concentration … (AUC of change)” value in assay [4] is listed as “increased the concentration significantly”. Further, in assay [1], the “increase of the concentration … (AUC of change)” value was “increased the concentration significantly” and the “plasma glucose elevation (AUC)” value is given as “no significant difference”. For the same molecule, the “increase in the concentration of GIP in plasma (AUC, total GIP)” value in assay [2] was “no change”.
